According to PubChem BioAssay (NCI):
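At the GI50, growth is halved. TGI is the concentration that stops growth completely.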

Assays:
Test in all cases: NCI anticancer screen, dose series, 384-well format
786-0 renal = system: 786-0 renal
A498 renal = system: A498 renal
ACHN renal = system: ACHN renal
BT-549 breast = system: BT-549 breast
CCRF-CEM leukemia = system: CCRF-CEM leukemia
COLO 205 colon = system: COLO 205 colon
EKVX NSCLC = system: EKVX NSCLC
HCC-2998 colon = system: HCC-2998 colon
HCT-15 colon = system: HCT-15 colon
HL-60(TB) leukemia = system: HL-60(TB) leukemia
HOP-62 NSCLC = system: HOP-62 NSCLC
HOP-92 NSCLC = system: HOP-92 NSCLC
HT29 colon = system: HT29 colon
IGROV1 ovarian = system: IGROV1 ovarian
K-562 leukemia = system: K-562 leukemia
KM12 colon = system: KM12 colon
M14 melanoma = system: M14 melanoma
MDA-MB-231 breast = system: MDA-MB-231 breast
MDA-MB-435 melanoma = system: MDA-MB-435 melanoma
MOLT-4 leukemia = system: MOLT-4 leukemia
NCI-H226 lung = system: NCI-H226 lung
NCI-H23 lung = system: NCI-H23 lung
NCI-H322M lung = system: NCI-H322M lung
NCI-H460 NSCLC = system: NCI-H460 NSCLC
NCI/ADR-RES ovarian = system: NCI/ADR-RES ovarian
OVCAR-3 ovarian = system: OVCAR-3 ovarian
OVCAR-5 ovarian = system: OVCAR-5 ovarian
OVCAR-8 ovarian = system: OVCAR-8 ovarian
PC-3 prostate = system: PC-3 prostate
RPMI-8226 leukemia = system: RPMI-8226 leukemia
SF-268 CNS = system: SF-268 CNS
SF-295 CNS = system: SF-295 CNS
SF-539 CNS = system: SF-539 CNS
SK-MEL-2 melanoma = system: SK-MEL-2 melanoma
SK-MEL-28 melanoma = system: SK-MEL-28 melanoma
SK-MEL-5 melanoma = system: SK-MEL-5 melanoma
SK-OV-3 ovarian = system: SK-OV-3 ovarian
SNB-19 CNS = system: SNB-19 CNS
SNB-75 CNS = system: SNB-75 CNS
SR leukemia = system: SR leukemia
SW-620 colon = system: SW-620 colon
T-47D breast = system: T-47D breast
TK-10 renal = system: TK-10 renal
U251 glioblastoma = system: U251 glioblastoma
UACC-257 melanoma = system: UACC-257 melanoma
UACC-62 melanoma = system: UACC-62 melanoma
UO-31 renal = system: UO-31 renal

Compound: C[C@H](NC(=O)c1c(N)nn2cccnc12)c1cc2cccc(C#Cc3cnn(C)c3)c2c(=O)n1-c1ccccc1
- GI50 ([…]-0 renal): 4.91 µM
- TGI (786-0 renal): 17.2 µM
- GI50 (A498 renal): 2.72 µM
- TGI (A498 renal): 14.8 µM
- GI50 (ACHN renal): 4.31 µM
- TGI (ACHN renal): 19.4 µM
- GI50 (BT-549 breast): 1.48 µM
- TGI (BT-549 breast): 9.11 µM
- GI50 (CCRF-CEM leukemia): 0.0549 µM
- TGI (CCRF-CEM leukemia): 1.78 µM
- GI50 (COLO 205 colon): 8.8 µM
- TGI (COLO 205 colon): 22.7 µM
- GI50 (EKVX NSCLC): 2.6 µM
- TGI (EKVX NSCLC): 15.3 µM
- GI50 (HCC-2998 colon): 3.75 µM
- TGI (HCC-2998 colon): 15.1 µM
- GI50 (HCT-15 colon): 5.88 µM
- TGI (HCT-15 colon): 18.7 µM
- GI50 (HL-60(TB) leukemia): 1.15 µM
- TGI (HL-60(TB) leukemia): 4.94 µM
- GI50 (HOP-62 NSCLC): 7.24 µM
- TGI (HOP-62 NSCLC): 20.4 µM
- GI50 (HOP-92 NSCLC): 0.47 µM
- TGI (HOP-92 NSCLC): 4.04 µM
- GI50 (HT29 colon): 6.3 µM
- TGI (HT29 colon): 20 µM
- GI50 (IGROV1 ovarian): 0.559 µM
- TGI (IGROV1 ovarian): 2.1 µM
- GI50 (K-562 leukemia): 7.56 µM
- TGI (K-562 leukemia): 20.3 µM
- GI50 (KM12 colon): 10.3 µM
- TGI (KM12 colon): 23.2 µM
- GI50 (M14 melanoma): 11.1 µM
- TGI (M14 melanoma): 24.9 µM
- GI50 (MDA-MB-231 breast): 6.03 µM
- TGI (MDA-MB-231 breast): 18.3 µM
- GI50 (MDA-MB-435 melanoma): 10.6 µM
- TGI (MDA-MB-435 melanoma): 24.1 µM
- GI50 (MOLT-4 leukemia): 0.847 µM
- TGI (MOLT-4 leukemia): 2.21 µM
- GI50 (NCI-H226 lung): 3.95 µM
- TGI (NCI-H226 lung): 16.3 µM
- GI50 (NCI-H23 lung): 4.63 µM
- TGI (NCI-H23 lung): 18.9 µM
- GI50 (NCI-H322M lung): 9.35 µM
- TGI (NCI-H322M lung): 23.9 µM
- GI50 (NCI-H460 NSCLC): 3.71 µM
- TGI (NCI-H460 NSCLC): 16.7 µM
- GI50 (NCI/ADR-RES ovarian): 5.28 µM
- TGI (NCI/ADR-RES ovarian): 16.2 µM
- GI50 (OVCAR-3 ovarian): 2.93 µM
- TGI (OVCAR-3 ovarian): 14.9 µM
- GI50 (OVCAR-5 ovarian): 8.39 µM
- TGI (OVCAR-5 ovarian): 22.2 µM
- GI50 (OVCAR-8 ovarian): 8.07 µM
- TGI (OVCAR-8 ovarian): 21.3 µM
- GI50 (PC-3 prostate): 1.84 µM
- TGI (PC-3 prostate): 12.9 µM
- GI50 (RPMI-8226 leukemia): 1.71 µM
- TGI (RPMI-8226 leukemia): 3.73 µM
- GI50 (SF-268 CNS): 2.02 µM
- TGI (SF-268 CNS): 9.93 µM
- GI50 (SF-295 CNS): 4.14 µM
- TGI (SF-295 CNS): 17.1 µM
- GI50 (SF-539 CNS): 4.67 µM
- TGI (SF-539 CNS): 17 µM
- GI50 (SK-MEL-2 melanoma): 12.4 µM
- TGI (SK-MEL-2 melanoma): 24.9 µM
- GI50 (SK-MEL-28 melanoma): 4.42 µM
- TGI (SK-MEL-28 melanoma): 17.8 µM
- GI50 (SK-MEL-5 melanoma): 5.38 µM
- TGI (SK-MEL-5 melanoma): 20 µM
- GI50 (SK-OV-3 ovarian): 2.19 µM
- TGI (SK-OV-3 ovarian): 12.5 µM
- GI50 (SNB-19 CNS): 13 µM
- TGI (SNB-19 CNS): 26.5 µM
- GI50 (SNB-75 CNS): 0.806 µM
- TGI (SNB-75 CNS): 4.38 µM
- GI50 (SR leukemia): 4.16 µM
- TGI (SR leukemia): 16.9 µM
- GI50 (SW-620 colon): 15.3 µM
- TGI (SW-620 colon): 28.7 µM
- GI50 (T-47D breast): 0.375 µM
- TGI (T-47D breast): 2.41 µM
- GI50 (TK-10 renal): 3.93 µM
- TGI (TK-10 renal): 17.3 µM
- GI50 (U251 glioblastoma): 12.3 µM
- TGI (U251 glioblastoma): 25.1 µM
- GI50 (UACC-257 melanoma): 8.67 µM
- TGI (UACC-257 melanoma): 22.7 µM
- GI50 (UACC-62 melanoma): 1.54 µM
- TGI (UACC-62 melanoma): 12.1 µM
- GI50 (UO-31 renal): 3.18 µM
- TGI (UO-31 renal): 14.1 µM
